Results taken from patent US10081634B2, “Heterocyclic compound” (Daewoong Pharmaceutical Co., Ltd., priority 2014, dated 2018).

Columns and labels:
[1] = test system: NCI-H460 cells; test: Cancer cell growth inhibition experiment (MTT assay); format: cell-based; conditions: Homo sapiens; NCI-H460 lung cancer cell line; 48 hours treatment; MTT cell viability
Summary of the method: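 NCI-H460 lung cancer cells seeded at 6,000–12,000 cells/well in 5% FBS medium, settled 24 h, then exposed to compound at 0.01–100 μM for 48 h at 37°C, 5% CO2. MTT viability read-out; IC50 calculated and binned into A (≤5 μM), B (5–30 μM), C (≥30 μM).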

[2] = molecular target: T1, PRS (prolyl-tRNA synthetase) (Homo sapiens, UniProt P07814); test: In vitro PRS enzyme activity inhibition experiment ([3H]proline, liquid scintillation); format: biochemical; conditions: purified PRS protein subcloned from EPRS cDNA; 37° C., 5 to 10 minutes; read-out: PRS IC50
T1 construct: the portion corresponding to PRS in cDNA of EPRS was subcloned; made in house
T1 sequence (P07814 1007-1512 limits assumed): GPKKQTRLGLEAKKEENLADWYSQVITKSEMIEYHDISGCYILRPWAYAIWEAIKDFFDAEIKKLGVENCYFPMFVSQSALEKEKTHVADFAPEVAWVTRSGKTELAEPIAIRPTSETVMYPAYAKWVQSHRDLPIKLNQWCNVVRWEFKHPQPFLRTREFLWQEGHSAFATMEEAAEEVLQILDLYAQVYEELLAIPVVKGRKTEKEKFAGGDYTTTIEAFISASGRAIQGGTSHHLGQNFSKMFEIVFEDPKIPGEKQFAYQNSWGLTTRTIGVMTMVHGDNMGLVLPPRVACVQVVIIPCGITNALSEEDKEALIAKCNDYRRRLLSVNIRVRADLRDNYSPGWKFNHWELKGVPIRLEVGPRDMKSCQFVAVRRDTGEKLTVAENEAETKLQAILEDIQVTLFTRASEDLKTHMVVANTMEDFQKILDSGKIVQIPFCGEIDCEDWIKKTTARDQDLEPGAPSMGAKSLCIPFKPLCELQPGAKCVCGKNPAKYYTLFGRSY
Summary of the method: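 Purified human PRS domain subcloned from EPRS cDNA, reacted at 37 °C for 5–10 min in 20 mM KPO4 pH 7.4, 6 mM MgAc, 5 mM ATP, tRNA, 0.5 mM DTT and [3H]proline. Compounds tested at 1 μM. Aminoacylation read on TCA-treated filter paper by liquid scintillation, giving % inhibition or IC50.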

IC50 [1]: 5000 to 30000 nM
IC50 [2]: 100 to 500 nM
Compound: O=C(C[C@H]1NCCC[C@@H]1O)Cn1cnc2c(F)c(F)ccc21 [Example 11, 1-(4,5-difluoro-1H-benzo[d]imidazol-1-yl)-3-((2R,3S)-3-hydroxypiperidin-2-yl)propan-2-one]
